The source of these data is the NIST ThermoML archive (doi:10.1021/je700445y).

The nature of data set [1]: refractive index (Na D-line) (dimensionless). The settings on record: 293.15 K; 101.33 kPa; Liquid; Standard Abbe refractometry.
The conditions of data set [2]: Liquid; for mass density: 293.15 K, 101.33 kPa; for vapor or sublimation pressure: Ebulliometric method (Recirculating still).

Structures are written as SMILES. ± gives the expanded uncertainty stated by the source.

Take `CCCCCC` [hexane]: the refractive index in data set [1] amounted to 1.37486 ± 0.00075. Moreover, the mass density in data set [2] was determined as 660 ± 2 kg/m3. In addition, the “vapor or sublimation pressure” value in data set [2] (341.8 K) is on record as 101.33 ± 0.53 kPa.
Regarding `CCCCCCCC` [octane], the refractive index in data set [1] came out at 1.3965 ± 0.00075. The mass density in data set [2] is recorded as 708 ± 1 kg/m3. The “vapor or sublimation pressure” value in data set [2] (398.96 K) was 101.33 ± 0.53 kPa.
With `C=CCCCCCCCC` [1-decene], the refractive index in data set [1] came out at 1.4214 ± 0.00073. Also, in data set [2], the mass density turned out to be 741 ± 1 kg/m3. Besides, the “vapor or sublimation pressure” value in data set [2] (443.8 K) is reported as 101.33 ± 0.52 kPa.

As usually defined, the refractive index is the speed of light in vacuum divided by its phase velocity in the sample. Usually mass density stands for the mass of a sample divided by its volume. In general, vapor or sublimation pressure refers to the equilibrium pressure above the liquid or solid.
